Where two headings read alike, the source gives them in different places.
Legend:
[1] = test system: Alpo5-wt; assay: Two-electrode voltage clamp (TEVC) on Alpo5-wt expressed in Xenopus laevis oocytes; format: cell-based, Alvinella pompejana; settings: for Hill coefficient / EC50: concentration-activation curve, n = 4; for EC50: Hill fit, -80 mV
Procedure: (§1) For the expression in Xenopus laevis oocytes, the genes coding for AlpoX-wt were subcloned into the vector pGEM-HE [38]. After NheI-treatment, the linearized plasmid DNA was transcribed to produce capped RNA by using the T7 mMESSAGE-mMACHINE transcription kit (Ambion). Four nanogram of the resulting RNA was injected into the cytosol of stage V and VI oocytes either manually or with an automated injection system (Roboinject, MultiChannelSystems). Oocyte preparations and injections were done using standard procedures.
(§2) One to five days after injection, electrophysiological recordings were performed by conventional or automated TEVC (HiClamp, MultiChannel Systems). […] Unless indicated otherwise, cells were held at a fixed potential of –80 mV throughout the experiment. To minimize heat shock, all preparation and recording procedures were carried out at 16°C [40]. Functional characterization consisted of the screening of potential ligands, the establishment of concentration-activation curves and the determination of ion selectivity. Different small molecules were tested for their effects on AlpoX-wt, such as dopamine, taurine, γ-aminobutyric acid (GABA), glycine and ivermectin (the complete list and the corresponding concentrations are mentioned in Table 1). To determine concentration-activation curves, cells were exposed to increasing concentrations of the test substance. To assess ion selectivity, current-voltage (I-V) relationships were determined in control OR2 solution as well as in medium in which chloride ions were substituted by gluconate. These I-V curves were generated by voltage ramps applied within 4 s and constructed around the reversal potential (Erev ± 80 mV). Leak properties of the cells measured in control conditions were subtracted from the I-V curves measured during exposure to 10 mM GABA.
(§3) Data were acquired either on a manual setup or on an automated recording system (HiClamp, MultiChannel Systems). […] Data acquired with the HiClamp were analyzed using the corresponding software.

[2] = test system: Alpo6-wt; assay: Two-electrode voltage clamp (TEVC) on Alpo6-wt expressed in Xenopus laevis oocytes; format: cell-based, Alvinella pompejana; settings: for Hill-coefficients: activation-response curves; for EC50: concentration-activation curve
Procedure: as §1, §2, §3

[3] = biological target: Alpo4-wt (Alvinella pompejana); assay: negative stain EM; purified protein 0.03 mg/mL on carbon-coated copper grids, 1% uranyl formate, 120 kV; 2D class averages for Alpo4-wt

Compound	agonist type [1]	Hill coefficient [1]	agonist type [2]	Hill-coefficients [2]	current evoked by a saturating concentration relative to current evoked by a saturating concentration of glycine ([2]; on average) [%]	EC50 [1] [µM]	EC50 ([2]; n = 3, read-out: EC50 values) [µM]	currents evoked at a saturating concentration relative to responses evoked by a saturating concentration of glycine ([1]; on average) [%]	EC50 ([2]; n = 3, read-out: EC50 value) [µM]	stoichiometry N [3]
NCCCC(=O)O [GABA, γ-aminobutyric acid]	full-agonists	2.49 ± 0.09	partial agonistic effect	1.94 ± 0.15	86					
NCC(=O)O [glycine]	full-agonists	2.68 ± 0.08	full agonists	2.20 ± 0.16		291 ± 16.4	22100 ± 4530			
NCCS(=O)(=O)O [taurine]	partial agonist	2.51 ± 0.18	full agonists	1.87 ± 0.12		370 ± 30.2		74	227 ± 30.5	
Alpo4-wt (receptor)										5

From publication PMC4801368, “Functional and Biochemical Characterization of Alvinella pompejana Cys-Loop Receptor Homologues” (PLoS ONE, 2016)
